Assay results published in ChEMBL document CHEMBL3507680, “University of Dundee, Gates Library screen for HepG2 cell viability”.

Assay: Human HepG2 cell viability assay in 384 well format
Format: toxicity, cell-based
Parameters: dose 125 nL, time 70.5 hour; cytotoxicity at 70.5 h: concentration not given beside the values
Conditions: HepG2 cells, read-out: Inhibition

Row | SMILES | cytotoxicity at 70.5 h
1 | N#Cc1c(-c2ccccc2)csc1N | -22.3%
2 | O=C(NC1CC1)C1CCN(c2nc3nc[nH]c(=O)c3s2)CC1 | -20.8%
3 | CCNC(=O)c1cc(OC)c2cc(F)cc(C)c2n1 | -12.9%
4 | COc1ccc(-c2c(C)nn3c(=N)c(C#N)n[nH]c23)cc1 | -12.3%
5 | Cc1cc(=O)[nH]c(=O)n1COCCOCc1ccccc1 | 25.1%
6 | Cn1cnnc1SCc1cc2c(cc1Cl)OCO2 | -20.6%
7 | CN(C)CCCNC(=O)c1ccccc1NC(=O)c1cc(Cl)ccc1Cl | -13.9%
8 | COc1ccc(OC)c(NC(=O)CSc2ccc3nncn3n2)c1 | -8.56%
9 | Cc1n[nH]/c(=N\C(=O)c2c3c(nc4onc(C)c24)CCC3)s1 | -13.7%
10 | O=C(CCn1ccc2cc(Br)ccc21)/N=c1\[nH]nc(C2CCCO2)s1 (configuration not stated) | -12%
11 | COc1ccc(-c2cc(=O)n3c(n2)CCCCC3)cc1 | -10.4%
12 | CN(C)c1ccc(-c2cc(=O)n3c(n2)CCCCC3)cc1 | -11%
13 | CCOc1ccc(-c2cc(=O)n3c(n2)CCCCC3)cc1 | -5.56%
14 | COc1ccc(NC(=O)CSc2nncn2-n2cccc2)c(OC)c1 | -14.5%
15 | CCOc1cccc(CNc2ccccc2C(F)(F)F)c1O | 13.7%
16 | CCOc1cccc(CNc2ccccc2Cl)c1O | -4.02%
17 | Cc1c(C)n(Cc2ccncc2)c2nc3c(c(N)c12)CCCC3 | -7.64%
18 | O=C(O)C1CCN(C(=O)CCn2ccc3cc(Br)ccc32)CC1 | -15.9%
19 | NC(=O)C1CCN(C(=O)Cn2ccc3cc(Br)ccc32)CC1 | -9.96%
20 | CN(C(=O)Cn1nc(-c2ccccc2)ccc1=O)C1CCS(=O)(=O)C1 (configuration not stated) | -12.1%
21 | O=C(NCCCN1CCOCC1)c1nc(-c2ccc3cc[nH]c3c2)no1 | -16.3%
22 | O=C(NCCCN1CCCC1=O)c1nc(-c2ccc3cc[nH]c3c2)no1 | -22.5%
23 | Cc1c(C)n(Cc2ccncc2)c2nc3c(c(N)c12)CCCCCC3 | 30.2%

Row | SMILES | cytotoxicity at 70.5 h
24 | O=c1ccc(-c2cccs2)nn1CN1CCN(C2CCS(=O)(=O)C2)CC1 (configuration not stated) | -10.9%
25 | O=c1ccc(-c2cccs2)nn1CN1CCOCC1 | -16.7%
26 | CC(C)c1nnc2ccc(N3CCCC(C(=O)Nc4nccs4)C3)nn12 (configuration not stated) | -25.2%
27 | COc1cccc(N2Cc3nc(=O)n(C(C)C)n3C2=O)c1 | -13.3%
28 | CC(C)c1nnc2ccc(N3CCC(C(=O)NC4CC4)CC3)nn12 | -25%
29 | Cc1oc(-c2nc(C#N)c(N(C)C)o2)cc1S(=O)(=O)N1CCCCCC1 | 12.8%
30 | Cc1ccc(-c2csc(N)c2C#N)c(C)c1 | -15.8%
31 | O=c1[nH]c2c(c(=O)n1C1CCCCC1)CCC2NCc1ccccc1 (configuration not stated) | -30.1%
32 | O=c1[nH]c2c(c(=O)n1C1CCCCC1)CCC2Nc1ccccn1 (configuration not stated) | 20.1%
33 | O=c1[nH]c2c(c(=O)n1C1CCCCC1)CCC2Nc1ccc(Cl)cc1 (configuration not stated) | -12.5%
34 | COc1ccc(NC2CCc3c2[nH]c(=O)n(C2CCCCC2)c3=O)cc1 (configuration not stated) | -28.5%
35 | O=C1C(CS(=O)(=O)Nc2ccc(Br)cc2)=NC(=O)n2cccc21 | 2.35%
36 | Cc1nn(C)c(=O)c2nn(-c3ccc(F)cc3)c(C)c12 | -8.42%
37 | Cc1cc(SCC(N)=O)nc(-c2cccc(F)c2)n1 | -11.7%
38 | O=C(c1cnc2ccc(F)cc2c1NCc1ccco1)N1CCCCC1 | -9.21%
39 | Cc1ccc(Cn2c(=O)[nH]c3csnc3c2=O)cc1 | -13.9%
40 | O=C(c1cnc2ccc(F)cc2c1NCc1ccccn1)N1CCCC1 | -17.9%
41 | CCCN(CCC)c1ncc(S(=O)(=O)c2cccc(C)c2)c(N)n1 | -20.1%
42 | Cc1c(C(=O)O)cnn1-c1ccc(-c2nc(C(C)C)no2)cn1 | -15.1%
43 | CCCc1noc(-c2ccc(-n3ncc(C(=O)O)c3C)nc2)n1 | 23.5%
44 | Cc1noc(-c2ccc(-n3ncc(C(=O)O)c3C)nc2)n1 | -5.29%
45 | Cc1cccc(-c2cc(C(=O)O)sn2)c1 | -14.1%
46 | Cc1c(C(=O)N2CCN(C)CC2)n(C)c2ccc(Cl)cc12 | -11.7%

Row | SMILES | cytotoxicity at 70.5 h
47 | CCc1c(C)n(C)c2nc3ccccc3n2c1=O | 8.75%
48 | CCc1c(C)n(CC(=O)OC)c2nc3ccccc3n2c1=O | -14.1%
49 | CC1(C)CC(=O)c2cnc3nc(N4CCCC4)[nH]c(=O)c3c2C1 | -10.4%
50 | CC1CCN(c2nc3ncc4c(c3c(=O)[nH]2)CC(C)(C)CC4=O)CC1 | -4.25%
51 | O=C(NCCSCc1ccco1)c1ccc(N2CCOCC2)cc1 | -12.3%
52 | COc1ccc(-n2nc(C(C)=O)c(C(C)=O)c2C)cc1Cl | 17.1%
53 | Cc1nn(C)c(=O)c2nn(-c3cccc(Cl)c3)c(C)c12 | -14.1%
54 | Cc1nn(C)c(=O)c2nn(-c3ccc(Cl)cc3)c(C)c12 | -1.68%
55 | CC(=O)c1nn(-c2ccccc2)c(C)c1C(C)=O | -8.03%
56 | COc1ccc(-c2nnsc2C(=O)N2CCSCC2)cc1 | -8.21%
57 | COc1ccc(-c2nnsc2C(=O)N2CCC(C(N)=O)CC2)cc1 | -13.8%
58 | Cc1cs/c(=N\C(=O)Cn2nc(N3CCSCC3)ccc2=O)[nH]1 | -13.2%
59 | Cc1cs/c(=N\C(=O)Cn2nc(N3CCOCC3)ccc2=O)[nH]1 | -13.8%
60 | Cc1cn([C@@H]2CC3(CCNCC3)OC[C@@]2(C)O)c(=O)[nH]c1=O | 0.487%
61 | c1cnc(N2CCC(c3csc(Nc4cnccn4)n3)CC2)nc1 | 12.4%
62 | O=C1CCOC[C@]2(CN(Cc3ccccc3)C[C@H]2c2ccccc2)N1 | 26.7%
63 | COc1ccccc1Cc1cc(O)nc(NC(C)CN(C)C)n1 (configuration not stated) | 2.81%
64 | Cc1ccccc1OCCCNC(=O)C1(C)CC(=O)N2C=CC=CC2=N1 (configuration not stated) | 0.923%
65 | CCC(C)(C)n1nnnc1C(c1cccs1)N1CCc2ccccc2C1 (configuration not stated) | 0.836%
66 | Cc1nc(=O)c2ccccc2n1C1=CCN(CC(=O)NC(C)C)CC1 | -1.95%
67 | Cc1nc(NCCN2CCCC2=O)cc(C2CN(C(C)C)CCO2)n1 (configuration not stated) | 1.39%
68 | CC(C)C(=O)N1CCCC(Cc2ncccn2)C1 (configuration not stated) | -1.65%
69 | CCC(=O)N1CCC(c2nc(N3CCCC3)ncc2S(C)(=O)=O)CC1 | 17.6%

Row | SMILES | cytotoxicity at 70.5 h
70 | O=C(NCCO)C1(CC2CC(c3ccc(F)cc3)=NO2)CCOCC1 (configuration not stated) | 14.1%
71 | CC(=O)N1CCC(c2noc(C3CCC(=O)N3)n2)CC1 (configuration not stated) | 16.7%
72 | Cc1noc(C)c1-c1nc(C2CCCN(C(=O)CN)C2)ccc1CO (configuration not stated) | -11.3%
73 | Cc1c(CN2CCCC2c2cncc(CN3CCCC3)n2)cnn1C (configuration not stated) | 1.84%
74 | CCn1cc(S(=O)(=O)N2CCC(C3CCCCN(C)C3=O)CC2)c(C)n1 (configuration not stated) | 7.12%
75 | CC(C)c1cc(C(=O)N2CCCC(c3cc(=O)nc4n3CCC4)C2)no1 (configuration not stated) | -11.3%
76 | FC(F)(F)c1cc(C2CCCN(c3cnccn3)C2)n2ccnc2n1 (configuration not stated) | -11.9%
77 | CC(=O)N[C@H]1CCO[C@@H](c2cccc(NC(=O)c3ccc(=O)[nH]n3)c2)C1 | 24.6%
78 | COc1ccc(NC(=O)c2cnc(C3CCN(C(C)=O)C3)nc2C)cc1 (configuration not stated) | 17.3%
79 | CC1(c2ncc(CN3CCSCC3)cn2)CCCCO1 (configuration not stated) | -11.9%
80 | O=C(CCn1cccn1)N1CCC(c2nnc(-c3ccsc3)o2)CC1 | -8.63%
81 | CN1CCCC1c1ccnc2nccn12 (configuration not stated) | -7.34%
82 | COc1nsc2nc(C3CCCN3c3ncccn3)ccc12 (configuration not stated) | -7.28%
83 | O=S1(=O)NC(C2CCCN(S(=O)(=O)N3CCCC3)C2)=Nc2ccccc21 (configuration not stated) | -6.9%
84 | CC(=O)N[C@H]1CCO[C@@H](c2cccc(NC(=O)Cc3ccccc3)c2)C1 | 10.3%
85 | CC1(C(N)=O)CN(S(=O)(=O)c2cccc(F)c2)CCO1 (configuration not stated) | 14.7%
86 | Cc1nn(C)cc1NC(=O)CN1CCN(C2CCCC2)C(=O)C1 | -6.18%
87 | CN(CCn1cncc1-c1cnc(N2CCOCC2)nc1)C1CCCC1 | -5.17%
88 | O=S(=O)(c1cn[nH]c1)N1CCCC(O)(CN2CCOCC2)CC1 (configuration not stated) | -3.34%
89 | Cc1c(CN2Cc3nccn3CC2c2ccccc2)cnn1C (configuration not stated) | -4.09%
90 | Cc1noc(C)c1C(=O)N[C@@H]1CCC[C@@H](Oc2ccccc2)[C@@H]1O | -1.7%
91 | CC(C)c1cc(C(=O)NCCc2nc(-c3cccnc3)n[nH]2)[nH]n1 | 11.1%
92 | COc1ccc(C2CN(c3ncccn3)CCN2C(C)=O)cc1 (configuration not stated) | -5.51%

Row | SMILES | cytotoxicity at 70.5 h
93 | Cc1nccn1-c1nccnc1C1CCCN(C2CCCC2)C1 (configuration not stated) | 14.2%
94 | Cc1cccc(Nc2noc3c2CN(C(=O)c2ccn(C)n2)CC3)c1C | 3.73%
95 | Cc1cccc(C)c1Nc1noc2c1CN(C(=O)c1c[nH]nc1C)CC2 | 12.8%
96 | COCC(=O)NCc1ccc(-c2ncncc2C(=O)N(C)C)cc1 | -2.25%
97 | c1cc(CN2CCC[C@@H](Cn3nnc(-c4cnccn4)n3)C2)ccn1 | -2.89%
98 | Cn1cc(CN2CCC(c3ncc(Cl)cc3S(C)(=O)=O)CC2)cn1 | -6.32%
99 | CN1C[C@]2(CC[C@@H](C(=O)N3CCOCC3)CC2)Oc2ccccc2C1=O | -5.13%
100 | CC(C)NC(=O)[C@H]1CN(Cc2ccccc2)C[C@@H]1C(=O)c1ccccc1 | -1.04%
101 | O=C(O)[C@H]1CN(Cc2ccccc2)C[C@@H]1C(=O)c1ccccc1 | -3.77%
102 | O=C(c1cc(C2CC2)n[nH]1)N1C[C@H]2CC[C@](O)(c3ccccc3F)[C@H]2C1 | -2.83%
103 | Cc1cnc(C(=O)N2CCN(c3ncc4c(n3)CCOC4)CC2)cn1 | -1.26%
104 | Cc1ccc(C)c(CSc2nnc(C(N)C(C)C)o2)c1 (configuration not stated) | -9.25%
105 | COc1ccc(CNCC(C)Oc2ccccn2)cc1 (configuration not stated) | -18.6%
106 | CC(CNCc1ccc(F)cc1)Oc1ccccn1 (configuration not stated) | -17.7%
107 | Cc1c(C(=O)N2CCOCC2)n(C)c2ccc(Cl)cc12 | -10.5%
108 | Cc1nccn1CCCn1cncc1-c1ccc2c(c1)CC(C)N2C (configuration not stated) | 3.68%
109 | O=C(c1ccnc(C2CCNCC2)c1)N1CCCC1 | 7.01%
110 | CC(C)[C@H](N)C(=O)N1CCCC(C2=Nc3ccccc3S(=O)(=O)N2)C1 (some centres not stated) | -9.78%
111 | Cc1nc(N)c2ccc(C3CCCN3)nc2n1 (configuration not stated) | -9.62%
112 | Cc1nc2sccn2c1CN(CCCN(C)C)Cc1ccccn1 | -8.06%
